According to US10975077B2 (Novira Therapeutics, Inc., priority 2016, dated 2021):

system: HBV (encapsidated HBV DNA, HepG2.2.15 cells); test: HBV replication inhibition assay, BDNA assay in HepG2.2.15 cells; format: cell-based; details: Activity in BDNA-assay
Experimental: HBV replication inhibition by the disclosed compounds were determined in cells infected or transfected with HBV, or cells with stably integrated HBV, such as HepG2.2.15 cells (Sells et al. 1987). In this example, HepG2.2.15 cells were maintained in cell culture medium containing 10% fetal bovine serum (FBS), Geneticin, L-glutamine, penicillin and streptomycin. HepG2.2.15 cells were seeded in 96-well plates at a density of 40,000 cells/well and were treated with serially diluted compounds at a final DMSO concentration of 0.5% either alone or in combination by adding drugs in a checker box format. Cells were incubated with compounds for three days, after which medium was removed and fresh medium containing compounds was added to cells and incubated for another three days. At day 6, supernatant was removed and treated with DNase at 37° C. for 60 minutes, followed by enzyme inactivation at 75° C. for 15 minutes. Encapsidated HBV DNA was released from the virions and covalently linked HBV polymerase by incubating in lysis buffer (Affymetrix QS0010) containing 2.5 μg proteinase K at 50° C. for 40 minutes. HBV DNA was denatured by addition of 0.2 M NaOH and detected using a branched DNA (BDNA) QuantiGene assay kit according to manufacturer recommendation (Affymetrix). HBV DNA levels were also quantified using qPCR, based on amplification of encapsidated HBV DNA extraction with QuickExtraction Solution (Epicentre Biotechnologies) and amplification of HBV DNA using HBV specific PCR probes that can hybridize to HBV DNA and a fluorescently labeled probe for quantitation. In addition, cell viability of HepG2.2.15 cells incubated with test compounds alone or in combination was determined by using CellTitre-Glo reagent according to the manufacturer protocol (Promega). The mean background signal from wells containing only culture medium was subtracted from all other samples, and percent inhibition at each compound concentration was calculated by normalizing to signals from HepG2.2.15 cells treated with 0.5% DMSO using equation E1. % inhibition=(DMSOave−Xi)/DMSOave×100% E1: where DMSOave is the mean signal calculated from the wells that were treated with DMSO control (0% inhibition control) and Xi is the signal measured from the individual wells. EC50 values, effective concentrations that achieved 50% inhibitory effect, were determined by non-linear fitting using Graphpad Prism software (San Diego, Calif.) and equation E2: Y=Y min+(Y max −Y min)/(1+10(Log EC50−X)×HillSlope) E2: […]
where Y represents percent inhibition values and X represents the logarithm of compound concentrations.
Selected disclosed compounds were assayed in the HBV replication assay (BDNA assay), as described above and a representative group of these active compounds is shown in Table 6.

First: CN1CC([S+](C)[O-])Cn2nc3c(c2C1=O)CN(C(=O)Nc1ccc(F)c(Cl)c1)CC3 (single isomer, unassigned) [Compound 026B, N-(3-chloro-4-fluoro-phenyl)-10-methyl-8-methylsulfinyl-11-oxo-1,3,4,7,8,9-hexahydropyrido[2,3]pyrazolo[2,4-b][1,4]diazepine-2-carboxamide]
Second: CC1CN(C)C(=O)c2c3c(nn2C1)C[C@@H](C)N(C(=O)Nc1ccc(F)c(Cl)c1)C3 (single isomer, unassigned) [Compound 080_D2, (3R,8R*)—N-(3-chloro-4-fluorophenyl)-3,8,10-trimethyl-11-oxo-3,4,8,9,10,11-hexahydro-1H-pyrido[4′,3′:3,4]pyrazolo[1,5-a][1,4]diazepine-2 (7H)-carboxamide]
The EC50 of the first is higher: 500 to 1000 nM for the first, 1 to 100 nM for the second.

`C[C@@H]1Cc2nn3c(c2CN1C(=O)Nc1ccc(F)c(Cl)c1)C(=O)N(C)CC(C)(F)C3` (single isomer, unassigned) [Compound 079_D2, (3R,8S*)—N-(3-chloro-4-fluorophenyl)-8-fluoro-3,8,10-trimethyl-11-oxo-1,3,4,7,8,9,10,11-octahydro-2H-pyrido[4′,3′:3,4]pyrazolo[1,5-a][1,4]diazepine-2-carboxamide] and `C[C@@H]1Cc2nn3c(c2CN1C(=O)Nc1ccc(F)c(Br)c1)C(=O)N(C)CC(CO)C3` (single isomer, unassigned) [Compound 086_D2, (3R,8R*)—N-(3-bromo-4-fluorophenyl)-8-(hydroxymethyl)-3,10-dimethyl-11-oxo-1,3,4,7,8,9,10,11-octahydro-2H-pyrido[4′,3′:3,4]pyrazolo[1,5-a][1,4]diazepine-2-carboxamide] fall in the same range of EC50: 1 to 100 nM for the first, 1 to 100 nM for the second.

`C[C@@H]1Cc2nn3c(c2CN1C(=O)Nc1ccc(F)c(C(F)(F)F)c1)C(=O)N(C)CC(CO)C3` (single isomer, unassigned) [Compound 081_D2, (3R,8R*)—N-(4-fluoro-3-(trifluoromethyl)phenyl)-8-(hydroxymethyl)-3,10-dimethyl-11-oxo-3,4,8,9,10,11-hexahydro-1H-pyrido[4′,3′:3,4]pyrazolo[1,5-a][1,4]diazepine-2 (7H)-carboxamide] and `C[C@@H]1Cc2nn3c(c2CN1C(=O)Nc1cc(C(F)(F)F)c(F)cc1F)C(=O)N(C)CC(CO)C3` (single isomer, unassigned) [Compound 082_D1, (3R,8S*)—N-(2,4-difluoro-5-(trifluoromethyl)phenyl)-8-(hydroxmethyl)-3,10-dimethyl-11-oxo-1,3,4,7,8,9,10,11-octahydro-2H-pyrido[4′,3′:3,4]pyrazolo[1,5-a][1,4]diazepine-2-carboxamide] fall in the same range of EC50: 1 to 100 nM for the first, 1 to 100 nM for the second.

First: C[C@@H]1Cc2nn3c(c2CN1C(=O)Nc1cc(C(F)(F)F)c(F)cc1F)C(=O)N(C)CC(CO)C3 (single isomer, unassigned) [Compound 082_D2, (3R,8R*)—N-(2,4-difluoro-5-(trifluoromethyl)phenyl)-8-(hydroxymethyl)-3,10-dimethyl-11-oxo-1,3,4,7,8,9,10,11-octahydro-2H-pyrido[4′,3′:3,4]pyrazolo[1,5-a][1,4]diazepine-2-carboxamide]
Second: C[C@@H]1Cc2nn3c(c2CN1C(=O)Nc1cc(Br)c(F)cc1F)C(=O)N(C)CC(CO)C3 (single isomer, unassigned) [Compound 085_D2, (3R,8R*)—N-(5-bromo-2,4-difluorophenyl)-8-(hydroxymethyl)-3,10-dimethyl-11-oxo-1,3,4,7,8,9,10,11-octahydro-2H-pyrido[4′,3′:3,4]pyrazolo[1,5-a][1,4]diazepine-2-carboxamide]
The EC50 of the first is higher: 100 to 500 nM for the first, 1 to 100 nM for the second. The second is the more potent here.

First: C[C@@H]1Cc2nn3c(c2CN1C(=O)Nc1ccc(F)c(C(F)(F)F)c1F)C(=O)N(C)CC(CO)C3 (single isomer, unassigned) [Compound 083_D2, (3R,8R*)—N-(2,4-difluoro-3-(trifluoromethyl)phenyl)-8-(hydroxymethyl)-3,10-dimethyl-11-oxo-1,3,4,7,8,9,10,11-octahydro-2H-pyrido[4′,3′:3,4]pyrazolo[1,5-a][1,4] diazepine-2-carboxamide]
Second: C[C@@H]1Cc2nn3c(c2CN1C(=O)Nc1ccc(F)c(Br)c1F)C(=O)N(C)CC(CO)C3 (single isomer, unassigned) [Compound 084_D1, (3R,8S*)—N-(3-bromo-2,4-difluorophenyl)-8-(hydroxymethyl)-3,10-dimethyl-11-oxo-1,3,4,7,8,9,10,11-octahydro-2H-pyrido[4′,3′:3,4]pyrazolo[1,5-a][1,4]diazepine-2-carboxamide]
The EC50 of the first is lower: 1 to 100 nM for the first, 100 to 500 nM for the second.

`C[C@@H]1Cc2nn3c(c2CN1C(=O)Nc1ccc(F)c(Br)c1F)C(=O)N(C)CC(CO)C3` (single isomer, unassigned) [Compound 084_D2, (3R,8R*)—N-(3-bromo-2,4-difluorophenyl)-8-(hydroxymethyl)-3,10-dimethyl-11-oxo-1,3,4,7,8,9,10,11-octahydro-2H-pyrido[4′,3′:3,4]pyrazolo[1,5-a][1,4]diazepine-2-carboxamide] was tested, and the EC50 was 1 to 100 nM.

same assay, conditions: Hepatitis B virus, HepG2.2.15, Activity in BDNA-assay

Compared with `COC1CN(C)C(=O)c2c3c(nn2C1)CCN(C(=O)Nc1ccc(F)c(Cl)c1)C3` (single isomer, unassigned) [Compound 016B, (R*)—N-(3-chloro-4-fluorophenyl)-8-methoxy-10-methyl-11-oxo-3,4,8,9,10,11-hexahydro-1H-pyrido[4′,3′:3,4]pyrazolo[1,5-a][1,4]diazepine-2 (7H)-carboxamide], `CN1CC([S+](C)[O-])Cn2nc3c(c2C1=O)CN(C(=O)Nc1ccc(F)c(Cl)c1)CC3` (single isomer, unassigned) [Compound 026A, N-(3-chloro-4-fluoro-phenyl)-10-methyl-8-methylsulfinyl-11-oxo-1,3,4,7,8,9-hexahydropyrido[2,3]pyrazolo[2,4-b][1,4]diazepine-2-carboxamide] is higher in EC50: 1 to 100 nM for the first, greater than 1000 nM for the second.

`C[C@@H]1Cc2nn3c(c2CN1C(=O)Nc1ccc(F)c(Cl)c1)C(=O)N(C)CC(C)(F)C3` (single isomer, unassigned) [Compound 079_D1, (3R,8R*)—N-(3-chloro-4-fluorophenyl)-8-fluoro-3,8,10-trimethyl-11-oxo-1,3,4,7,8,9,10,11-octahydro-2H-pyrido[4′,3′:3,4]pyrazolo[1,5-a][1,4]diazepine-2-carboxamide] and `CC1CN(C)C(=O)c2c3c(nn2C1)C[C@@H](C)N(C(=O)Nc1ccc(F)c(Cl)c1)C3` (single isomer, unassigned) [Compound 080_D1, (3R,8S*)—N-(3-chloro-4-fluorophenyl)-3,8,10-trimethyl-11-oxo-3,4,8,9,10,11-hexahydro-1H-pyrido[4′,3′,3,4]pyrazolo[1,5-a][1,4] diazepine-2 (7H)-carboxamide] fall in the same range of EC50: 1 to 100 nM for the first, 1 to 100 nM for the second.

`C[C@@H]1Cc2nn3c(c2CN1C(=O)Nc1ccc(F)c(C(F)(F)F)c1)C(=O)N(C)CC(CO)C3` (single isomer, unassigned) [Compound 081_D1, (3R,8S*)—N-(4-fluoro-3-(trifluoromethyl)phenyl)-8-(hydroxymethyl)-3,10-dimethyl-11-oxo-3,4,8,9,10,11-hexahydro-1H-pyrido[4′,3′:3,4]pyrazolo[1,5-a][14]diazepine-2 (7H)-carboxamide] and `C[C@@H]1Cc2nn3c(c2CN1C(=O)Nc1ccc(F)c(Br)c1)C(=O)N(C)CC(CO)C3` (single isomer, unassigned) [Compound 086_D1, (3R,8S*)—N-(3-bromo-4-fluorophenyl)-8-(hydroxymethyl)-3,10-dimethyl-11-oxo-1,3,4,7,8,9,10,11-octahydro-2H-pyrido[4′,3′:3,4]pyrazolo[1,5-a][1,4]diazepine-2-carboxamide] fall in the same range of EC50: 1 to 100 nM for the first, 1 to 100 nM for the second.

`C[C@@H]1Cc2nn3c(c2CN1C(=O)Nc1ccc(F)c(C(F)(F)F)c1F)C(=O)N(C)CC(CO)C3` (single isomer, unassigned) [Compound 083_D1, (3R,8S*)—N-(2,4-difluoro-3-(trifluoromethyl)phenyl)-8-(hydroxymethyl)-3,10-dimethyl-11-oxo-1,3,4,7,8,9,10,11-octahydro-2H-pyrido[4′,3′:3,4]pyrazolo[1,5-a][1,4] diazepine-2-carboxamide] and `C[C@@H]1Cc2nn3c(c2CN1C(=O)Nc1cc(Br)c(F)cc1F)C(=O)N(C)CC(CO)C3` (single isomer, unassigned) [Compound 085_D1, (3R,8 S*)—N-(5-bromo-2,4-difluorophenyl)-8-(hydroxymethyl)-3,10-dimethyl-11-oxo-1,3,4,7,8,9,10,11-octahydro-2H-pyrido[4′,3′:3,4]pyrazolo[1,5-a][1,4]diazepine-2-carboxamide] fall in the same range of EC50: 1 to 100 nM for the first, 1 to 100 nM for the second.
